{"source": "ChEMBL document CHEMBL1138998", "about": "“A topological function based on spectral moments for predicting affinity toward A3 adenosine receptors” (Bioorg Med Chem Lett, 2006)"}
{"molecular_target": "T1, Adenosine receptor A3 (Rattus norvegicus, UniProt P28647)", "T1 sequence (P28647 whole entry)": "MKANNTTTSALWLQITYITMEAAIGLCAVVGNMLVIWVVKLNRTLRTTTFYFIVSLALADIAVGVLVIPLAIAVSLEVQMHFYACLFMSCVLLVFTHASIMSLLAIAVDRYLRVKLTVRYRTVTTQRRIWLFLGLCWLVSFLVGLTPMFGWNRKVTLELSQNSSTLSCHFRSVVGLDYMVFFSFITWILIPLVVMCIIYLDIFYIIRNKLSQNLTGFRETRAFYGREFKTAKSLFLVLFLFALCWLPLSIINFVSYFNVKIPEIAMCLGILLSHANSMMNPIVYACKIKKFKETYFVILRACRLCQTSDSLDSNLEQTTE", "assay": "Displacement of [125I]AB-MECA from rat adenosine A3 receptor expressed in CHO cells", "format": "cell-based", "units": {"Ki": "nM"}}
{"smiles": "CCNC(=O)[C@H]1O[C@@H](n2cnc3c(NC(=O)Nc4ccc(S(=O)(=O)Nc5cc(C)on5)cc4)ncnc32)[C@H](O)[C@@H]1O", "Ki": 155}
{"smiles": "CCNC(=O)[C@H]1O[C@@H](n2cnc3c(NC(=O)Nc4ccc(S(=O)(=O)Nc5ccccn5)cc4)ncnc32)[C@H](O)[C@@H]1O", "Ki": 54.1}
{"smiles": "CCNC(=O)[C@H]1O[C@@H](n2cnc3c(NC(=O)Nc4ccc(S(=O)(=O)Nc5ncccn5)cc4)ncnc32)[C@H](O)[C@@H]1O", "Ki": 405}
